IC50, inhibition and Inhibition data for 18 compounds are collected here from ChEMBL document CHEMBL1125841, “Nucleosides and nucleotides. 96. Synthesis and antitumor activity of 5-ethynyl-1-beta-D-ribofuranosylimidazole-4-carboxamide (EICAR) and its derivatives” (J Med Chem, 1991).

The subject of test [1] is L1210. In words: (§1) In vitro inhibitory activity against growth of murine L1210 cells. It is filed as functional, cell-based. Particulars: Mus musculus.
The next test relates to PC-3. In words: In vitro inhibitory activity against growth of Human lung adenocarcinoma (PC-3) cells. It is filed as functional, cell-based.
The test system of another test is SW480. As to the kind of experiment: In vitro inhibitory activity against growth of Human colon adenocarcinoma (SW-480) cells. It is filed as functional, cell-based.
The subject of a further test is T-24. In words: In vitro inhibitory activity against growth of Human bladder transitional-cell carcinoma (T-24) cells. It is filed as functional, cell-based.
A further test has as its system OST. As to the kind of experiment: In vitro inhibitory activity against growth of Human osteosarcoma (OST) cells. It is filed as functional, cell-based.
The next test has as its system Lu-65. As to the kind of experiment: In vitro inhibitory activity against growth of Human gaint cell carcinoma (Lu-65) cells. It is filed as functional, cell-based.
Another test concerns PC-13. In words: In vitro inhibitory activity against growth of Human large-cell carcinoma (PC-13) cells. It is filed as functional, cell-based.
Another test deals with KB. As to the kind of experiment: In vitro inhibitory activity against growth of Human oral epidermoid carcinoma (KB) cells. It is filed as functional, cell-based.
Test [2] deals with L1210. As to the kind of experiment: In vitro inhibitory activity against growth of murine L1210 cells at 100 ug/mL concentration. It is filed as functional. The conditions noted are these: Mus musculus.
A further test relates to COLO 205. As to the kind of experiment: In vitro inhibitory activity against growth of Human colon adenocarcinoma (COLO 205) cells. It is filed as functional, cell-based.
For another test, the system named is HOS. As to the kind of experiment: In vitro inhibitory activity against growth of Human osteogenic sarcoma (HOS) cells. It is filed as functional, cell-based.
For a further test, the system named is HL-60. In words: In vitro inhibitory activity against growth of Human promyelocytic leukemia (HL-60) cells. It is filed as functional, cell-based.
The next test relates to K562. As to the kind of experiment: In vitro inhibitory activity against growth of Human chronic myelogenous leukemia (K562 cells. It is filed as functional, cell-based.
For another test, the system named is PANC-1. As to the kind of experiment: In vitro inhibitory activity against growth of Human pancreas epitheloid carcinoma (PANC-1) cells. It is filed as functional, cell-based.
Another test has as its system KU-2 cell line. In words: In vitro inhibitory activity against growth of Human renal-cell carcinoma (KU-2) cells. It is filed as functional, cell-based.
The next test deals with CCRF-CEM. In words: In vitro inhibitory activity against growth of Human acute lymphocytic leukemia (CCRF-CEM) cells. It is filed as functional, cell-based.
The test system of a further test is Calu-1. As to the kind of experiment: In vitro inhibitory activity against growth of Human epidermoid carcinoma (Calu-1) cells. It is filed as functional, cell-based.
The next test concerns HT-1376. In words: In vitro inhibitory activity against growth of Human bladder carcinoma (HT1376) cells. It is filed as functional, cell-based.
For another test, the system named is RPMI-8226. As to the kind of experiment: In vitro inhibitory activity against growth of Human myeloma (RPMI 8226) cells. It is filed as functional, cell-based.
The subject of another test is QG-90. In words: In vitro inhibitory activity against growth of Human lung small cell carcinoma (QG-90) cells. It is filed as functional, cell-based.
For a further test, the system named is PC-8. As to the kind of experiment: In vitro inhibitory activity against growth of Human lung adenocarcinoma (PC-8) cells. It is filed as functional, cell-based.
In another test the test system is G-292. As to the kind of experiment: In vitro inhibitory activity against growth of Human osteogenic sarcoma (G-292) cells. It is filed as functional, cell-based. Particulars: G292.
The next test concerns SAOS-2. As to the kind of experiment: In vitro inhibitory activity against growth of Human osteogenic sarcoma (Saos-2) cells. It is filed as functional, cell-based.
For the next test, the system named is U-937. As to the kind of experiment: In vitro inhibitory activity against growth of Human histocytic lymphoma (U937) cells. It is filed as functional, cell-based.
A further test concerns QG-56. As to the kind of experiment: In vitro inhibitory activity against growth of Human lung squamous-cell carcinoma (QG-56) cells. It is filed as functional, cell-based.
For another test, the system named is HT-1080. As to the kind of experiment: In vitro inhibitory activity against growth of Human fibrosarcoma (HT1080) cells. It is filed as functional, cell-based.
The subject of a further test is PC-6. In words: In vitro inhibitory activity against growth of Human lung small-cell carcinoma (PC-6) cells. It is filed as functional, cell-based.
In test [3] the test system is L1210. The test is described as §1. It is filed as functional, Mus musculus.

Values after ≈ are worked out from the molar mass of the structure shown.

`CCCC#Cc1c(C#N)ncn1C1O[C@H](CO)[C@@H](O)[C@H]1O` (some centres not stated): the IC50 (commonly the point on the concentration scale where inhibition reaches its midpoint) in the test on L1210 [1] was 14.8 µg/mL (≈ 50.8 µM).

In turn, `N#Cc1ncn(C2O[C@H](CO)[C@@H](O)[C@H]2O)c1C#Cc1ccccc1` (some centres not stated) yielded a concentration for half-maximal inhibition (IC50) in the test with L1210 [1] of 80.3 µg/mL (≈ 247 µM).

Regarding `C#Cc1c(C#N)ncn1C1O[C@H](CO)[C@@H](O)[C@H]1O` (some centres not stated), inhibition in the test on L1210 [1] was half-maximal at 1.9 µg/mL (≈ 7.62 µM) (IC50).

Turning to `NC(=O)c1ncn(C2O[C@H](CO)[C@@H](O)[C@H]2O)c1C#CCO` (some centres not stated), the IC50 was 54 µg/mL (≈ 182 µM) with PC-3; 3.8 µg/mL (≈ 12.8 µM) in the test on SW480; 8.8 µg/mL (≈ 29.6 µM) with T-24; over 100 µg/mL in the test with OST; 0.7 µg/mL (≈ 2.35 µM) in the test with L1210 [1]; 54 µg/mL (≈ 182 µM) with Lu-65. For the same compound, the values for the IC50 with PC-13 and in the test with KB were 44 µg/mL (≈ 148 µM) and 7.5 µg/mL (≈ 25.2 µM), respectively.

Compound `N#Cc1ncn(C2O[C@H](CO)[C@@H](O)[C@H]2O)c1C#CCCO` (some centres not stated) came in with a 50% inhibitory concentration (IC50) in the test on L1210 [1] of 3.3 µg/mL (≈ 11.3 µM).

In the test with L1210 [1], `CC(C)(O)C#Cc1c(C(N)=O)ncn1C1O[C@H](CO)[C@@H](O)[C@H]1O` (some centres not stated) displayed an IC50 of 4.8 µg/mL (≈ 14.8 µM).

Consider `NC(=O)c1ncn(C2O[C@H](CO)[C@@H](O)[C@H]2O)c1C#CC1CCCCC1` (some centres not stated), for which, in the test on L1210 [2], the inhibition (usually the drop in the measured response relative to a control, in per cent) at 100 µg/mL is 18.9%.

`O=c1[nH]cc(F)c(=O)[nH]1` [FLUOROURACIL]: the IC50 with COLO 205 came to 0.1 µg/mL (≈ 0.769 µM); in the test with HOS, 0.79 µg/mL (≈ 6.07 µM); with HL-60, 1.33 µg/mL (≈ 10.2 µM); in the test with K562 it was 2.2 µg/mL (≈ 16.9 µM); in the test with PANC-1, 0.22 µg/mL (≈ 1.69 µM); in the test on KU-2 cell line, 0.28 µg/mL (≈ 2.15 µM). Moreover, the IC50 in the test on CCRF-CEM was 2.1 µg/mL (≈ 16.1 µM); in the test with Calu-1, over 3.3 µg/mL; in the test on HT-1376, 0.58 µg/mL (≈ 4.46 µM); in the test with RPMI-8226, 0.07 µg/mL (≈ 0.538 µM); in the test with QG-90 it was 0.22 µg/mL (≈ 1.69 µM); with PC-8, 0.42 µg/mL (≈ 3.23 µM). In addition, the IC50 in the test on G-292 was over 3.3 µg/mL; with SAOS-2, 0.78 µg/mL (≈ 6 µM); in the test on U-937 it was 0.11 µg/mL (≈ 0.846 µM); with QG-56 it was 0.18 µg/mL (≈ 1.38 µM).

Regarding `N#Cc1ncn(C2O[C@H](CO)[C@@H](O)[C@H]2O)c1C#CCO` (some centres not stated), the IC50 in the test on L1210 [1] worked out at 4.1 µg/mL (≈ 14.7 µM).

With `C#Cc1c(C(N)=O)ncn1[C@@H]1O[C@H](CO)[C@@H](O)[C@H]1O`, the IC50 amounted to 0.11 µg/mL (≈ 0.412 µM) in the test on COLO 205; 96 µg/mL (≈ 359 µM) in the test on PC-3; 3.3 µg/mL (≈ 12.3 µM) in the test on SW480; 0.28 µg/mL (≈ 1.05 µM) with HOS; 0.23 µg/mL (≈ 0.861 µM) with HL-60; 0.17 µg/mL (≈ 0.636 µM) with K562. The IC50 with PANC-1 was 0.16 µg/mL (≈ 0.599 µM); in the test on KU-2 cell line, under 0.1 µg/mL; with CCRF-CEM, 1.03 µg/mL (≈ 3.85 µM); in the test on HT-1080 it was 3 µg/mL (≈ 11.2 µM); with T-24, 0.88 µg/mL (≈ 3.29 µM); with PC-6 it was 0.46 µg/mL (≈ 1.72 µM). The IC50 with Calu-1 was determined as 0.21 µg/mL (≈ 0.786 µM); with HT-1376, 0.14 µg/mL (≈ 0.524 µM); in the test on OST, 28 µg/mL (≈ 105 µM); in the test with RPMI-8226, 0.44 µg/mL (≈ 1.65 µM); in the test on QG-90 it was 0.23 µg/mL (≈ 0.861 µM); with PC-8, 0.54 µg/mL (≈ 2.02 µM). For the same compound, the IC50 in the test on L1210 [1] worked out at 0.18 µg/mL (≈ 0.674 µM); with G-292 it was 2.55 µg/mL (≈ 9.54 µM); in the test with Lu-65, 3.8 µg/mL (≈ 14.2 µM); in the test on SAOS-2 it was 4.23 µg/mL (≈ 15.8 µM); in the test with U-937, 0.11 µg/mL (≈ 0.412 µM); with PC-13 it was 86 µg/mL (≈ 322 µM). The values for the IC50 with KB and in the test with QG-56 were 12 µg/mL (≈ 44.9 µM) and 0.18 µg/mL (≈ 0.674 µM), respectively.

For `NC(=O)c1ncn(C2O[C@H](CO)[C@@H](O)[C@H]2O)c1C#CCC1CCCC1` (some centres not stated), in the test on L1210 [2], the inhibition at 100 µg/mL is -10.7%.

For `C=Cc1c(C(N)=O)ncn1C1O[C@H](CO)[C@@H](O)[C@H]1O` (some centres not stated), the inhibition at 100 µg/mL in the test with L1210 [2] turned out to be 0.4%.

Take `N#CCCCC#Cc1c(C(N)=O)ncn1C1O[C@H](CO)[C@@H](O)[C@H]1O` (some centres not stated): the Inhibition (as a rule, the change of the read-out against control, counted positive when it falls) with L1210 [3] is 3.6%.

For `NC(=O)c1ncn(C2O[C@H](CO)[C@@H](O)[C@H]2O)c1C#CCCc1ccccc1` (some centres not stated), in the test on L1210 [2], the inhibition at 100 µg/mL was 8.5%.

Take `NC(=O)c1ncn([C@@H]2O[C@H](CO)[C@@H](O)[C@H]2O)c1O` [MIZORIBINE]: the IC50 in the test on PC-3 was over 100 µg/mL; with SW480, 42 µg/mL (≈ 162 µM); in the test with HT-1080, over 100 µg/mL; in the test on T-24, over 100 µg/mL; in the test on PC-6, 49 µg/mL (≈ 189 µM); in the test on OST, over 100 µg/mL. Also, the IC50 with Lu-65, in the test with PC-13 and with KB was over 100 µg/mL in each case.

On to `NC(=O)c1ncn(C2O[C@H](CO)[C@@H](O)[C@H]2O)c1C#Cc1ccccc1` (some centres not stated), for which inhibition with L1210 [1] was half-maximal at 20.6 µg/mL (≈ 60 µM) (IC50).

`CCCCC#Cc1c(C(N)=O)ncn1C1O[C@H](CO)[C@@H](O)[C@H]1O` (some centres not stated): the IC50 in the test on L1210 [1] is 2.29 µg/mL (≈ 7.08 µM).

Take `NC(=O)c1ncn(C2O[C@H](CO)[C@@H](O)[C@H]2O)c1C#CCCO` (some centres not stated): the IC50 is over 100 µg/mL in the test on PC-3; 6.2 µg/mL (≈ 19.9 µM) in the test with SW480; over 100 µg/mL in the test on HT-1080; 15 µg/mL (≈ 48.2 µM) in the test with T-24; 12 µg/mL (≈ 38.5 µM) in the test with PC-6; 51 µg/mL (≈ 164 µM) in the test with OST. The IC50 in the test with L1210 [1] was determined as 1.28 µg/mL (≈ 4.11 µM); in the test on Lu-65 it was 15 µg/mL (≈ 48.2 µM); in the test with PC-13 it was 26 µg/mL (≈ 83.5 µM); in the test with KB, 9.5 µg/mL (≈ 30.5 µM).
